In patent US9321737B2, “CDK8-CDK19 selective inhibitors and their use in anti-metastatic and chemopreventative methods for cancer” (SENEX BIOTECHNOLOGY INC, priority 2012, dated 2016):

Columns and labels:
[1] = Solubility in 20% propylene glycol; type: physicochemical; settings: 1 mM, 40° C., 30 min, centrifuged, OD reading
Experimental: (§1) The compounds were also tested for solubility in 20% propylene glycol and in water, as follows. Compounds (dry powder) were dissolved in 20% propylene glycol at a concentration of 1 mM at a temperature of 40° C. with occasional vortexing. After 30 min, the solution was centrifuged at 10,000×g for 5 min. Serial dilutions of the cleared supernatant were prepared and used to measure the compound concentrations through OD reading, relative to 1 μM standard solution of the same compound. The results of the measurement were expressed as % solubility of the compound at 1 mM in 20% propylene glycol. To determine water solubility, the compounds (dry powder) were initially dissolved in water at a concentration of 100 mM at a temperature of 40° C. with occasional vortexing. After 30 min, the solution was centrifuged at 10,000×g for 5 min, and the formation of an insoluble pellet was monitored. At subsequent steps, the compound was attempted to be dissolved at lower concentrations, until no pellet was observed after centrifugation, indicating complete solution of the compound.

[2] = Water solubility; type: physicochemical; settings: 40° C., 30 min, no pellet after centrifugation
Experimental: as §1

[3] = system: CDKI pathway (CMV promoter stimulation by p21) in HT1080 fibrosarcoma cells; assay: CDKI pathway inhibition cellular assay (CMV-GFP induction by IPTG-inducible p21); type: cell-based, human; settings: IPTG-induced p21, CMV-GFP / Hoechst 33342, read-out: Cell-based Assay EC50
Experimental: The compounds described below are shown in Table 1 and the structures of some novel compounds according to the invention are shown in FIG. 1. […] All the compounds were tested for the ability to inhibit the CDKI pathway in a cellular assay described in our previous patent application PCT/US06/01046. This assay is based on the induction of green fluorescent protein (GFP) expression from the cytomegalovirus (CMV) promoter in human HT1080 fibrosarcoma cells that express CDKI p21 from an isopropyl-β-thio-galactoside (IPTG)-inducible promoter. The compound activity as a CDKI pathway inhibitor is measured by its ability to prevent the stimulation of the CMV promoter upon the addition of p21-inducing IPTG. CMV promoter activity is measured by the ratio of GFP fluorescence to the relative cell number, as determined by staining cellular DNA with Hoechst 33342.

[4] = system: MDA-MB-468; assay: MDA-MB-468 TNBC xenograft model; type: in vivo, female nude mice; settings: 40 mg/kg Senexin B daily i.p.; 4 mg/kg doxorubicin two injections two weeks apart
Experimental: Female nude mice were inoculated with MDA-MB-468 cells, and once palpable tumors were formed, mice were randomized into 4 groups, treated daily i.p. with vehicle alone (n=12), 40 mg/kg Senexin B, two injections with 4 mg/kg doxorubicin two weeks apart, or doxorubicin combined with Senexin B (n=8 in each of the latter groups).

[5] = system: MDA-MB-468 TNBC tumor invasion; assay: Histological analysis of MDA-MB-468 tumor invasion (H&E); type: in vivo, female nude mice; settings: tumors from FIG. 15B experiment
Source text: At the end of the experiment shown in FIG. 15B, mice were sacrificed, tumors were removed, formalin fixed, sectioned and processed for histological analysis after H&E staining.

[6] = system: MDA-MB-231; assay: MDA-MB-231 orthotopic TNBC xenograft; type: in vivo, female SCID mice; settings: 1 mg/kg doxorubicin single dose, three rounds
Experimental: Once tumors were formed, mice were randomized into 4 cohorts (n=10) and treated, at 7-10 day intervals, with three rounds of: vehicle (5 daily doses), 1 mg/kg doxorubicin (single dose), 40 mg/kg Senexin B (5 daily doses) or doxorubicin (single dose)+Senexin B (5 daily doses).

Row | Structure (SMILES) | % solubility at 1 mM in 20% propylene glycol [1] | Water Solubility [2] | EC50 [3] | tumor growth (tumor volumes after 30 days of treatment) [4] | invasive or non-invasive tumor growth [5] | lower body weight than control mice [6]
1 | COCCNC(=O)c1ccc(CCNc2ncnc3ccc(C#N)cc23)cc1 [SNX2-1-150] | 100% | Soluble at 10 mM | 2.2 µM |  |  | 
2 | N#Cc1ccc2ncnc(NCCc3ccc(C(=O)N4CCCCC4)cc3)c2c1 [SNX2-1-152] | 100% |  | 3.83 µM |  |  | 
3 | CN1CCN(C(=O)c2ccc(CCNc3ncnc4ccc(C#N)cc34)cc2)CC1 [SNX2-1-153] | 100% | Soluble at 10 mM | 5.21 µM |  |  | 
4 | CN(C)CCNC(=O)c1ccc(CCNc2ncnc3ccc(C#N)cc23)cc1 [SNX2-1-155] | 100% | Soluble at 10 mM | 4.57 µM |  |  | 
5 | COc1cccc2c1C(=O)c1c(O)c3c(c(O)c1C2=O)C[C@@](O)(C(=O)CO)C[C@@H]3O[C@H]1C[C@H](N)[C@H](O)[C@H](C)O1 [doxorubicin, reference compound] |  |  |  | significantly slowed down the tumor growth | displayed invasive growth | about 15%
